Test [1] deals with M. tuberculosis rRMP (ATCC 35838). Nature of the test: microbe, parasite or virus in culture. The format is cell-based, Mycobacterium tuberculosis.
In test [2] the test system is M. tuberculosis rINH (ATCC 35822). The test can be described thus: microbe, parasite or virus in culture. The class given is cell-based, Mycobacterium tuberculosis.
Test [3] deals with M. tuberculosis rSM (ATCC 35820). Nature of the test: microbe, parasite or virus in culture. The class given is cell-based, Mycobacterium tuberculosis.
Test [4] deals with M. tuberculosis rKM (ATCC 35827). Nature of the test: microbe, parasite or virus in culture. The class given is cell-based, Mycobacterium tuberculosis.
Test [5] has as its system M. tuberculosis rCS (cycloserine; ATCC35826). The test can be described thus: microbe, parasite or virus in culture. The class given is cell-based. The note with it: Mycobacterium tuberculosis.
In test [6] the test system is M. tuberculosis thyA overexpression mutant. The format is cell-based.
The subject of test [7] is M. tuberculosis thyX overexpression mutant. The class given is cell-based.
[8] abbreviates: Mycobacterium tuberculosis, ATCC35838.
Setting [9] is: Mycobacterium tuberculosis, ATCC35822.
Where [10] appears, read: Mycobacterium tuberculosis, ATCC35820.
Setting [11] is: Mycobacterium tuberculosis, ATCC35827.

Values after ≈ are worked out from the molar mass of the structure shown.

As for `NNC(=O)c1ccncc1` [INH, isoniazid], the MIC in test [1] (setting [8]) was 0.02 µg/mL (≈ 0.146 µM); in test [2] (setting [9]), over 2 µg/mL; in test [3] (setting [10]) it was 0.02 µg/mL (≈ 0.146 µM); in test [4] (setting [11]), 0.03 µg/mL (≈ 0.219 µM); in test [5] it was 0.01 µg/mL (≈ 0.0729 µM).

As to `CCCc1c2c([nH]c(=O)c1C)C(=O)c1[nH]c(=O)c(C)c(CCC)c1C2=O` [Compound 3, diazaquinomycin A], the MIC in test [1] (MABA, rRMP strain) stood at 0.27 µg/mL (≈ 0.762 µM); in test [2] (MABA, rINH strain) it was 0.13 µg/mL (≈ 0.367 µM); in test [3] (MABA, rSM strain) it was 0.17 µg/mL (≈ 0.48 µM); in test [4] (MABA, rKM strain) it was 0.06 µg/mL (≈ 0.169 µM). For the same compound, the “MIC differential versus H37Rv wild-type” value in test [6] and in test [7] was “did not observe a significant differential in the MIC” throughout.

For `O=[N+]([O-])c1cn2c(n1)OC[C@@H](OCc1ccc(OC(F)(F)F)cc1)C2` [PA824], the MIC in test [1] (setting [8]) worked out at 0.03 µg/mL (≈ 0.0835 µM); in test [2] (setting [9]), 0.03 µg/mL (≈ 0.0835 µM); in test [3] (setting [10]) it was 0.11 µg/mL (≈ 0.306 µM); in test [4] (setting [11]) it was 0.19 µg/mL (≈ 0.529 µM).

On to `NC[C@H]1O[C@H](O[C@H]2[C@H](O)[C@@H](O[C@H]3O[C@H](CO)[C@@H](O)[C@H](N)[C@H]3O)[C@H](N)C[C@@H]2N)[C@H](O)[C@@H](O)[C@@H]1O` [KM, kanamycin], for which the MIC in test [2] (MABA, rINH strain) was 0.95 µg/mL (≈ 1.96 µM); in test [3] (MABA, rSM strain), 0.95 µg/mL (≈ 1.96 µM); in test [4] (MABA, rKM strain), over 2.00 µg/mL.

As to `[H]/N=C(/N)N[C@H]1[C@H](O)[C@@H](O)[C@H](O[C@@H]2O[C@@H](C)[C@](O)(C=O)[C@H]2O[C@@H]2O[C@@H](CO)[C@H](O)[C@@H](O)[C@@H]2NC)[C@@H](N/C(N)=N\[H])[C@@H]1O` [SM, streptomycin], the MIC was 0.46 µg/mL (≈ 0.791 µM) in test [2] (setting [9]), over 2 µg/mL in test [3] (setting [10]) and 1.2 µg/mL (≈ 2.06 µM) in test [4] (setting [11]).

Regarding `CO[C@H]1/C=C/O[C@@]2(C)Oc3c(C)c(O)c4c(O)c(c(/C=N/N5CCN(C)CC5)c(O)c4c3C2=O)NC(=O)/C(C)=C\C=C\[C@H](C)[C@H](O)[C@@H](C)[C@@H](O)[C@@H](C)[C@H](OC(C)=O)[C@@H]1C` [RMP, rifampicin], the MIC in test [1] (setting [8]) is over 2 µg/mL; in test [2] (setting [9]) it was 0.01 µg/mL (≈ 0.0122 µM); in test [3] (setting [10]), 0.03 µg/mL (≈ 0.0365 µM); in test [4] (setting [11]) it was under 0.01 µg/mL; in test [5] it was under 0.01 µg/mL.

The values above are taken from article PMC4648258 (ACS infectious diseases, 2015).
